What was measured:
Test in all cases: combination Emax (second highest fraction inhibited in the dose matrix, 72 h); higher = more inhibition; extreme values may be limits of the assay
[1] = test system: Ramos-2G6-4C10 (Burkitt's Lymphoma)
Method in brief: (§1)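 Bliss excess equals the observed combination effect minus the expected value EA + EB − EA·EB, where EA and EB are the effects of each agent alone. Combination Emax is the second-highest inhibition within the matrix. Inhibition was scaled from CellTiter-Glo 2.0 luminescence, with 0 set by vehicle wells and 1 by blank wells, after 72 hours of two-drug dosing of cells plated in 1536-well plates.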

[2] = test system: DEL (T-Cell Non-Hodgkin's Lymphoma)
Method in brief: as §1

[3] = test system: MFE-296 (Endometrial Carcinoma)
Method in brief: as §1

[4] = test system: TE-15 (Esophageal Squamous Cell Carcinoma)
Method in brief: as §1

NB10 (Neuroblastoma) = test system: NB10 (Neuroblastoma)
Method in brief: as §1

AGS (Gastric Carcinoma) = test system: AGS (Gastric Carcinoma)
Method in brief: as §1

HOS (Osteosarcoma) = test system: HOS (Osteosarcoma)
Method in brief: as §1

[5] = test system: SNU-5 (Gastric Carcinoma)
Method in brief: as §1

T98G (Glioblastoma) = test system: T98G (Glioblastoma)
Method in brief: as §1

[6] = test system: KYSE-520 (Esophageal Squamous Cell Carcinoma)
Method in brief: as §1

[7] = test system: TCCSUP (Bladder Carcinoma)
Method in brief: as §1

[8] = test system: LU-135 (Small Cell Lung Carcinoma)
Method in brief: as §1

[9] = test system: OVCA420 (Ovarian Carcinoma)
Method in brief: as §1

[10] = test system: MDA-MB-361 (Breast Carcinoma)
Method in brief: as §1

[11] = test system: TE-9 (Esophageal Squamous Cell Carcinoma)
Method in brief: as §1

[12] = test system: RO82-W-1 (Thyroid Gland Carcinoma)
Method in brief: as §1

[13] = test system: HO-1-N-1 (Oral Cavity Carcinoma)
Method in brief: as §1

NOS-1 (Osteosarcoma) = test system: NOS-1 (Osteosarcoma)
Method in brief: as §1

42-MG-BA (Glioblastoma) = test system: 42-MG-BA (Glioblastoma)
Method in brief: as §1

[14] = test system: KURAMOCHI (Ovarian Carcinoma)
Method in brief: as §1

SMILES	combination Emax [1]	combination Emax [2]	combination Emax [3]	combination Emax [4]	combination Emax (NB10 (Neuroblastoma))	combination Emax (AGS (Gastric Carcinoma))	combination Emax (HOS (Osteosarcoma))	combination Emax [5]	combination Emax (T98G (Glioblastoma))	combination Emax [6]	combination Emax [7]	combination Emax [8]	combination Emax [9]	combination Emax [10]	combination Emax [11]	combination Emax [12]	combination Emax [13]	combination Emax (NOS-1 (Osteosarcoma))	combination Emax (42-MG-BA (Glioblastoma))	combination Emax [14]
COc1nnc2ccc(N3CCC(c4ccc(OCCN5CCN(C)C(=O)[C@H]5C)cc4)CC3)nn12 [AZD5153] + C=CCn1c(=O)c2cnc(Nc3ccc(N4CCN(C)CC4)cc3)nc2n1-c1cccc(C(C)(C)O)n1 [AZD1775] (first compound max 1 µM, partner max 1 µM)	1	1	0.581	0.756	0.749	0.923	0.501	0.522	0.717	0.656	0.578	1	0.789	0.791	0.275	0.451	0.813	0.867	0.688	0.83
COc1nnc2ccc(N3CCC(c4ccc(OCCN5CCN(C)C(=O)[C@H]5C)cc4)CC3)nn12 [AZD5153] + CC1(C)CCC(CN2CCN(c3ccc(C(=O)NS(=O)(=O)c4ccc(NCC5CCOCC5)c([N+](=O)[O-])c4)c(Oc4cnc5[nH]ccc5c4)c3)CC2)=C(c2ccc(Cl)cc2)C1 [Venetoclax] (first compound max 1 µM, 7x7, partner max 1 µM)	0.589	0.809	0.27	0.503	0.527	0.774	0.454	0.469	0.491	0.615	0.252	0.98	0.792	0.443	0.13	0.407	0.682	0.728	0.56	0.747
COc1nnc2ccc(N3CCC(c4ccc(OCCN5CCN(C)C(=O)[C@H]5C)cc4)CC3)nn12 [AZD5153] + CCN(CCO)CCCOc1ccc2c(Nc3cc(CC(=O)Nc4cccc(F)c4)[nH]n3)ncnc2c1 [AZD2811] (first compound max 1 µM, 7x7, partner max 1 µM)	0.666	0.905	0.333	0.486	0.571	0.936	0.486	0.506	0.491	0.605	0.366	1	0.773	0.49	0.218	0.402	0.815	0.765	0.783	0.738
COc1nnc2ccc(N3CCC(c4ccc(OCCN5CCN(C)C(=O)[C@H]5C)cc4)CC3)nn12 [AZD5153] + C[C@@H]1COCCN1C2=NC(=NC(=C2)C3(CC3)[S@](=N)(=O)C)C4=C5C=CNC5=NC=C4 [AZD6738] (first compound max 1 µM, 7x7, partner max 10 µM)	0.913	1	0.74	0.889	0.903	0.959	0.704	0.913	0.798	0.681	0.566	1	0.807	0.82	0.271	0.398	0.795	0.887	0.793	0.826
COc1nnc2ccc(N3CCC(c4ccc(OCCN5CCN(C)C(=O)[C@H]5C)cc4)CC3)nn12 [AZD5153] + Cc1c2c(nn1C)CSCc1cc(n(C)n1)CSc1cc(c3ccccc3c1)OCCCc1c(C(=O)O)n(C)c3c-2c(Cl)ccc13 [AZD5991] (first compound max 1 µM, 7x7, partner max 1 µM)	1	1	0.878	0.627	0.651	0.851	0.879	0.561	0.459	0.585	0.32	0.994	0.771	0.865	0.57	0.411	0.991	1	0.883	0.927
COc1nnc2ccc(N3CCC(c4ccc(OCCN5CCN(C)C(=O)[C@H]5C)cc4)CC3)nn12 [AZD5153] + Cn1cnc2c(F)c(Nc3ccc(Br)cc3Cl)c(C(=O)NOCCO)cc21 [Selumetinib] (first compound max 1 µM, 7x7, partner max 10 µM)	0.56	0.923	0.356	0.743	0.785	0.999	0.544	0.582	0.476	0.691	0.337	0.948	0.819	0.642	0.35	0.456	0.773	0.894	0.705	0.707
